In patent US11254671B2, “Chemical compounds” (GLAXOSMITHKLINE INTELLECTUAL PROPERTY DEVELOPMENT LIMITED, priority 2017, dated 2022):
Values joined by “and” are separate entries in the source; they are usually repeats but may differ in a detail not shown here. Identical values can stand only once.

Legend:
[1] = test system: type I collagen deposition in primary lung fibroblasts; assay: Highthroughput type I collagen deposition (scar-in-a-jar) high content screening assay; format: cell-based; settings: Homo sapiens, Primary lung fibroblast, 72 h, human pulmonary fibroblasts, TGF-β 1 ng/ml, Ficoll crowding, mean of multiple experiments, read-out: mean pIC50, inhibition of type I collagen deposition (converted)
Protocol: Example 53 Highthroughput Type I Collagen Deposition (Scar-in-a-Jar) High Content Screening Assay
Highthroughput, cellular type I collagen deposition was measured by adapting a published method; scar-in-a-jar (Chen et al., 2009) to primary lung fibroblasts derived from human tissue and combining with high content analysis to permit fluorescent quantification of collagen deposited in the extracellular matrix (ECM). The human biological samples were sourced ethically and their research use was in accord with the terms of the informed consents
Test compounds were dissolved in 100% DMSO to give 10 mM (stocks) and further diluted to give half log dilutions to generate an 11 point concentration response curve. 1 ul was transferred to 384-well plates (Greiner Group, Kremsmunster, Austria, Catalogue No Greine 781280r).
Human pulmonary fibroblasts were maintained in DMEM media (Gibco, Catalogue No 21969) supplemented with 4 mM L-glutamine (Gibco Catalogue No 25030-024) and 10% heat inactivated FBS (Gibco, Catalogue No 10099-141) at 37° C. in 10% CO2. Cells were harvested and resuspended at 4×10^6 cells/ml in a T175 cell culture flask (BD Falcom, Catalogue No: 353112) containing 50 mL of culture media. After 4 days 37° C. in 10% CO2, cells were harvested and seeded at 4000 cells per well (50 μL/well) into 384-well plates (BD Falcon, Catalogue No 353962Greiner) in assay media (0.4% heat inactivated FBS, 4 mM L-glutamine). Plates were sealed with breathable seals (Sigma, Catalogue No. BEM-1). Assay plates were incubated for 72 h at 37° C. in 10% CO2.
Assay media was supplemented with 112.5 mg/ml Ficoll 70 (Sigma, Catalogue No F2878), 75 mg/ml Ficoll 400 (Sigma, Catalogue No F4375) and 50 μg/ml ascorbic acid (Sigma, Catalogue No A8960). 30 μL assay media were added to 1 μl compound (37 μM compound concentration in 1% DMSO). Diluted compounds (10 μL) were transferred to plates containing cells and incubated for 3 h at 37° C. in 10% CO2. Transforming growth factor (TGF)-β (R&D systems, Catalogue No 100-B/CF) was reconstituted to give 10 μg/mL (stock) and further diluted in assay media containing Ficoll and ascorbic acid (1 in 3333). TGF-β was added to cell plates (1 ng/ml final) and cells incubated for 72 h at 37° C. in 10% CO2.
Media was aspirated from cells and 30 μL/well 100% ice-cold methanol added and incubated at RT for 5 min to fix cells. Methanol was aspirated and cells washed with PBS (3×). To block and permeabilise, cells were incubated with PBS containing 1% BSA and 0.1% Triton X 100 for 20 min, followed by PBS wash (3×). Cells were incubated with mouse anti human type I collagen monoclonal antibody (Sigma, Catalogue No C2456) diluted 1:1000 in PBS for 24 h at 4° C. Cells were washed with PBS containing 0.1% Tween-20 (3×) and incubated with secondary alexa fluor 488 goat-anti-mouse antibody (Invitrogen, Catalogue No A11001, 1 in 500 in PBS) and Hoechst 33342 (Sigma, Catalogue No H21492), 1 in 1000 in PBS) for 1 h at RT, prior to washing with PBS containing 0.1% Tween (×4).
Type I collagen immunoreactivity was detected using the INCell 2000 Analyzer (GE Healthcare, INcell 2000) set to excitation and emission wavelengths for DAPI and FITC with laser focus and exposure adjusted to appropriate levels. Images were imported and analysed using Columbus software (Perkin Elmer) and computational algorithms to quantify “total collagen area” and “cell count”.
Data analysis was performed by determining % inhibition values for test compounds relative to the minimum (media only) and maximum responses (TGF-βstimulation) with non-linear regression analysis to determine IC50 values for test compounds.

[2] = test system: phosphorylated Akt at serine 473 (pAKTs473) in primary human lung fibroblasts; assay: Highthroughput phosphorylated Akt (Ser473) in vitro immunoassay (MSD); format: cell-based; settings: Fibroblast, 1 h compound, PDGF-BB 10 ng/ml for 10 min, mean of multiple experiments, read-out: mean pIC50, inhibition of pAkt (Ser473) (converted)
Text: Highthroughput Phosphorylated Akt (Ser473) In Vitro Immunoassay
Immunoassay to measure effect of test compounds on phosphorylated Akt at serine 473 (pAKTs473) in primary human lung fibroblasts (Lonza Group Ltd, Basel, Switzerland, Catalogue No. CC-2512) using the MesoScale Discovery (MSD) platform to quantify levels of total Akt and pAKTser473.
Human lung fibroblasts were routinely maintained in fibroblast basal medium supplemented with 2% foetal bovine serum (FBS), 0.1% human fibroblast growth factor (FGF)-B, 0.1% insulin, 0.1% GA-100 (Lonza Group Ltd, Basel, Switzerland, Catalogue No. CC-3132) at 37° C. in 5% CO2 according to the manufacturer's protocol.
For the assay, cells were harvested using Trypsin/EDTA, (Lonza Group Ltd, Basel, Switzerland, Catalogue No. CC-5012), at working concentration of 0.025%, resuspended to give 3×10^5 cells/ml and 50 ul/well seeded into 384-well plates (Greiner Group, Kremsmunster, Austria, Catalogue No. 781091) in media containing 0.4% FBS and incubated o/n at 37° C. in 5% CO2.
Test compounds were dissolved in 100% DMSO to give 10 mM stock solutions and serially diluted to generate an 11-point concentration response curve. Compound were further diluted by […] into 384-well V-bottom polypropylene plates (Greiner Group, Kremsmunster, Austria, Catalogue No. 781280) with media containing 0.4% FBS to give 50 μM top compound concentration in 0.5% DMSO.
Compounds were transferred to 384-well plates contacting cells (0.1% DMSO final) and incubated for 1 h at 37° C. in 5% CO2, prior to stimulation with platelet-derived growth factor (PDGF)-BB (R&D Systems, Catalogue No. 220-BB) at 10 ng/ml (final) for 10 min at RT. Cell assay plates were incubated on ice and treated with lysis buffer (Cell Signalling Technology, Catalogue No. 9806) containing protease and phosphatase inhibitors (Thermo Scientific, Catalogue No. 78444) followed by shaking for 30 min at 4° C.
MSD plates (MSD, MA6000 384-well GAR plate, Catalogue No. L21RA-2) were blocked with blocking buffer containing TBS (MSD, Cat. No. R61TX-1) with 0.5% bovine serum albumin (BSA) (Sigma Aldrich, Cat. No. A7906), 0.1% tween-20 (Sigma Aldrich, Catalogue No. P2287) and coated with rabbit-anti-human pAkt (s473) ab (Cell Signalling Technology, Catalogue No. CST #4060) at RT with shaking, followed by washing (×3) with 1×TBS wash reagent containing 0.1% Tween-20. Cell lysates (30 ul) were added and MSD plates centrifuged at 1000 rpm at 4° C. o/n.
Plates were washed with 1×TBS wash buffer (×3), prior to addition of mouse-anti-human-total Akt ab (1 mg/ml) (Upstate (Milipore), Catalogue No. 05-591) in blocking buffer and shaken at RT for 1 h. After washing with 1×TBS wash buffer (×3), plates were incubated with goat-anti-mouse SULFO-TAG detection ab (MSD, Catalogue No. R32AC-1) (1:500 in blocking buffer) for 1 h at RT. Plates were washed with 1×TBS (×3) and read buffer (2×) (MSD, Catalogue No. R92TC-1) added before detecting electrochemiluminescence (MSD Sector Imager 6000).
Data analysis was performed by determining % inhibition values for test compounds relative to the minimum (+PDGF-BB stimulation) and maximum responses (no PDGF-BB stimulation) with non-linear regression analysis to determine IC50 values for test compounds.

[3] = target: T1, mTOR (Homo sapiens, UniProt P42345); assay: mTOR kinobeads assay (competition-binding assay); settings: HuT-78 cell extract, endogenously expressed mTOR, bead-immobilized capturing ligand; mean of multiple experiments; read-out: mean pIC50, affinity for mTOR (converted)
T1 construct: capturing of endogenously expressed target proteins from cell extracts by a bead-immobilized capturing ligand; endogenous in cells; host or cells: HuT-78 cells (ECACC 88041901), cell lysate
Protocol: The affinity of test compounds for mTOR was determined in the mTOR kinobeads assay. This is a competition-binding assay based on the capturing of endogenously expressed target proteins from cell extracts by a bead-immobilized capturing ligand in presence of the test compound.
HuT-78 cells (European Collection of Authenticated Cell Cultures, 88041901) were cultured according to vendor's instructions. Frozen cell pellets were homogenized in 3× pellet volumes lysis buffer (50 mM Tris-HCl, 0.4% (v/v) Igepal-CA630, 5% glycerol, 150 mM NaCl, 1.5 mMMgCl2, 25 mM NaF, 1 mM sodium vanadate, 1 mM DTT, pH 7.5, supplemented with EDTA-free protease inhibitor tablet (Roche)). The sample was dispersed using a Dounce homogenizer, kept rotating for 30 min at 4° C., and centrifuged for 10 min at 20 000 g at 4° C. The supernatant was centrifuged again for 1 h at 145 000 g. The protein concentration was determined by Bradford assay (BioRad), aliquots were snap frozen in liquid nitrogen and stored at −80° C.
The capturing matrices were generated by derivatizing N-hydroxysuccinimide (NHS) activated Sepharose 4 beads (GE Healthcare) with the functionalized ligands Compound A and Compound C at a ligand density of 5 mM. Remaining NHS-groups were blocked with ethanolamine.
For the mTOR kinobeads assay the matrices were combined in a 1:1 ratio and equilibrated in DP buffer (50 mM Tris-HCl (pH 7.5), 0.4% (v/v) Igepal-CA630, 5% (v/v) glycerol, 150 mM NaCl, 1.5 mM MgCl2, 25 mM NaF, 1 mM Na3VO4, 1 mM dithiothreitol). All steps of the mTOR kinobeads assay were performed at 4° C. or on ice. The cell lysate was diluted with DP buffer to a final concentration of 5 mg/ml and a final detergent concentration of 0.4% (v/v) Igepal-CA630. For the assay 250 μg cell lysate and 2.5 μl capturing matrix per well (final assay volume: 75 μl) were incubated in the presence of test compounds in a 384-well filter plate (MultiScreenHTS HV Filter Plate, 0.45 μm, MZHVNOW50, Merck Millipore). Each plate contained 16 positive (100 μM Compound B) and 16 negative (2% v/v DMSO) control wells. Compounds were tested in a concentration-response applying 1:3 or 1:4 dilution steps for in total 11 data points. DMSO concentration was 2% (v/v). After 2 h incubation on an overhead shaker (Roto-Shake Genie, Scientific Industries Inc.) at 4° C. the non-bound fraction was removed by washing the beads with DP buffer. Proteins retained on the beads were eluted in SDS sample buffer (200 mM Tris (pH 7.4), 250 mM Trizma Base, 4% (w/v) SDS, 20% (v/v) glycerol, 0.01% (w/v) bromophenol blue, 50 mM dithiothreitol) into a collection plate (384 well polypropylene microplate, V-shape, Greiner, 781 280). Eluates were spotted on nitrocellulose membranes (400 nl per spot) using an automated pin-tool liquid transfer (Biomek FX, Beckman). After drying, the membranes were rehydrated in 20% (v/v) ethanol and blocked by incubation with Odyssey blocking buffer (LICOR, 927-40000) for 1 h at room temperature. Blocked membranes were incubated overnight at 25° C. with Odyssey blocking buffer supplemented with a specific anti-mTOR antibody (Cell Signaling, 2972; 1:500) and 0.4% TWEEN-20. Then the membranes were washed in PBST buffer and incubated for 60 minutes at room temperature with the detection antibody (IRDye™ labelled antibody from LI-COR) diluted in Odyssey blocking buffer (LICOR 927-40000) containing 0.2% TWEEN-20. Then the membranes were washed with PBST and finally rinsed twice with PBS buffer to remove residual Tween-20. The membranes were then scanned with the Odyssey® Infrared Imaging System (LI-COR Biosciences). Fluorescence signals were recorded and analyzed according to the instructions of the manufacturer. Concentration response curves were computed with the software Activity Base. All data were normalized to the mean of 16 high (negative control) and 16 low (positive control) control wells on each plate. […]

SMILES | IC50 [1] [nM] | IC50 [2] [nM] | IC50 [3]
CCCC1COCCN1c1cc(CS(C)(=O)=O)cc(-c2ccc3[nH]c(CNC)cc3n2)n1 (stereo not shown) [Example 48, ({5-[4-(methanesulfonylmethyl)-6-(3-propylmorpholin-4-yl)pyridin-2-yl]-1H-pyrrolo[3,2-b]pyridin-2-yl}methyl)(methyl)amine] | 39.8 to 1000 | 3.16 to 316 | –
CNCc1cc2nc(-c3cc(C4(S(C)(=O)=O)CCOCC4)cc(N4CC5CCC(C4)O5)n3)ccc2[nH]1 [Example 37, ({5-[4-(4-methanesulfonyloxan-4-yl)-6-{8-oxa-3-azabicyclo[3.2.1]octan-3-yl}pyridin-2-yl]-1H-pyrrolo[3,2-b]pyridin-2-yl}methyl)(methyl)amine] | – | 3.16 to 316 | 2.51 to 31.6 nM and 2.51 to 316 nM
